Test results taken from patent US20190233884A1 (University of Southern California, priority 2016, published 2019).

Tested on: patients with refractory metastatic colorectal cancer (mCRC)
Assay: PFS, OS and disease control in the testing (validation) cohort of refractory mCRC patients receiving TAS-102 (n=129, Italy), by baseline characteristics, SNP genotype and toxicity
Format: in vivo, human
Settings: for OS HR (95% CI)‡ / PFS HR (95% CI) ‡: multivariable; for Disease Control Rate: PD / Disease Control Rate: SD: patients, n (%); for Disease Control Rate PD / Disease Control Rate SD / Overall Survival Median, months (95% CI) / Progression-free Survival Median, months (95% CI) / Overall Survival HR (95% CI) multivariate / Overall Survival HR (95% CI) univariate / Progression-free Survival HR (95% CI) multivariate / Progression-free Survival HR (95% CI) univariate / OS / PFS: testing cohort
Method: All patients underwent the treatment in salvage-line setting. […]
Genomic DNA was extracted from peripheral whole blood in patients of all cohorts using the QIAmp Kit (Qiagen, Valencia, Calif., USA) according to the manufacturer's protocol (www.qiagen.com). The candidate SNPs were genotyped using PCR-based direct DNA sequence analysis by ABI 3100A Capillary Genetic Analyzer and Sequencing Scanner v1.0 (Applied Biosystems). Amplification of extracted DNA was carried out using both forward and reverse primers for each gene polymorphism as shown in Table 1. […] The investigators analyzing SNPs were blinded to the clinical data of the study patients.
The primary endpoint in this study was progression-free survival (PFS), and the secondary endpoints were overall survival (OS) and disease control rate (DCR). PFS was calculated from the date of starting treatment to the first observation of disease progression or death from any cause. If a patient had no disease progression or death, PFS was censored at the date of last follow up. OS was calculated from the date of starting treatment until the date of death from any cause or the date of the last follow-up, at which point OS was censored. The disease control rate (DCR) was defined as the proportion of patients who achieved a stable disease (SD) or […] according to RECISTv1.1. Chi-square test was used to examine the difference in baseline patient characteristics among the three cohorts. Allelic distribution of all SNPs by ethnicity for deviation from Hardy-Weinberg equilibrium and the allelic frequencies of SNPs were tested using the Chi-square tests with one degree of freedom. The associations between candidate SNPs and disease control, and toxicities were examined using contingency tables and Fisher's exact test. The associations of SNPs with PFS and OS were analysed using Kaplan-Meier curves and the log-rank test. Because the true mode of inheritance of candidate SNPs was not established yet, a codominant or dominant genetic model if appropriate was considered.
All patients underwent the treatment in salvage-line setting. […] In all patients, adverse events were graded according to the Common Terminology Criteria for Adverse Events, version 4.0. […]
Genomic DNA was extracted from peripheral whole blood in patients of all cohorts using the QIAmp Kit (Qiagen, Valencia, Calif., USA) according to the manufacturer's protocol (www.qiagen.com). The candidate SNPs were tested using PCR-based direct DNA sequence analysis by ABI 3100A Capillary Genetic Analyzer and Sequencing Scanner v1.0 (Applied Biosystems). […] The investigators analyzing SNPs were blinded to the clinical data.
The primary endpoint in this study was progression-free survival (PFS), and the secondary endpoints were overall survival (OS) and disease control rate (DCR).

[1] = ATR rs2227928 A/A vs G/G, univariate
[2] = ATR rs2227928 Any A vs G/G, univariate
[3] = ATR rs2227928 G/A vs G/G, univariate
[4] = Pin1 rs2233678 G/C and C/C grouped together
[5] = Pin1 rs2233678 G/C and C/C grouped vs G/G
[6] = Pin1 rs2233678 G/C and C/C grouped vs G/G, univariate
[7] = Validation cohort, Neutropenia grade <3
[8] = Validation cohort, Neutropenia grade ≥3 vs <3, univariate
[9] = hENT1 + OCT2/MATE1 classification: Fair
[10] = hENT1 + OCT2/MATE1 classification: Good or Excellent
[11] = hENT1 + OCT2/MATE1 classification: Poor

## Trifluridine/tipiracil [TAS-102]
ATR rs2227928 A/A
  PFS median, months (95% CI): 2.4 months
  Disease Control Rate: PD: 14 (56%)
  Disease Control Rate: SD: 11 (44%)
ATR rs2227928 A/A vs G/G
  OS HR (95% CI)‡: 1.32
  PFS HR (95% CI) ‡: 1.03
[1]
  OS HR (95% CI)†: 0.94
  PFS HR (95% CI) †: 0.79
ATR rs2227928 Any A
  OS median, months (95% CI): 5.5 months
  PFS median, months (95% CI): 2.0 months
  Disease Control Rate: PD: 64 (72%)
  Disease Control Rate: SD: 25 (28%)
ATR rs2227928 Any A vs G/G
  OS HR (95% CI)‡: 1.35
  PFS HR (95% CI) ‡: 1.33
[2]
  OS HR (95% CI)†: 1.12
  PFS HR (95% CI) †: 1.11
ATR rs2227928 G/A
  OS median, months (95% CI): 5.4 months
  PFS median, months (95% CI): 2.0 months
  Disease Control Rate: PD: 50 (78%)
  Disease Control Rate: SD: 14 (22%)
ATR rs2227928 G/A vs G/G
  OS HR (95% CI)‡: 1.36
  PFS HR (95% CI) ‡: 1.45
[3]
  OS HR (95% CI)†: 1.20
  PFS HR (95% CI) †: 1.26
ATR rs2227928 G/G
  PFS median, months (95% CI): 2.1 months
  Disease Control Rate: PD: 27 (69%)
  Disease Control Rate: SD: 12 (31%)
[4]
  OS median, months (95% CI): 5.4 months
  PFS median, months (95% CI): 2.0 months
  Disease Control Rate: PD: 26 (70%)
  Disease Control Rate: SD: 11 (30%)
[5]
  OS HR (95% CI)‡: 0.97
  PFS HR (95% CI) ‡: 1.18
[6]
  OS HR (95% CI)†: 0.91
  PFS HR (95% CI) †: 1.00
Pin1 rs2233678 G/G
  OS median, months (95% CI): 5.8 months
  PFS median, months (95% CI): 2.0 months
  Disease Control Rate: PD: 65 (71%)
  Disease Control Rate: SD: 26 (29%)
[7]
  OS median, months (95% CI): 3.7 (3.3, 5.1) months
  PFS median, months (95% CI): 1.9 (1.7, 1.9) months
Validation cohort, Neutropenia grade ≥3
  PFS median, months (95% CI): 2.3 (2.0, 3.7) months
[8]
  OS HR (95% CI): 0.21 (0.10, 0.44)
  PFS HR (95% CI): 0.50 (0.32, 0.77)
MATE1_OCT019 Good
  Disease Control Rate PD: 63 (70%)
  Disease Control Rate SD: 27 (30%)
  Overall Survival Median, months (95% CI): 5.4 (4.1, 9.0+) months
  Progression-free Survival Median, months (95% CI): 2.0 (1.9, 2.3) months
MATE1_OCT019 Good vs Poor
  Overall Survival HR (95% CI) multivariate: 1.12 (0.59, 2.10)
  Overall Survival HR (95% CI) univariate: 1.18 (0.64, 2.17)
  Progression-free Survival HR (95% CI) multivariate: 0.91 (0.59, 1.42)
  Progression-free Survival HR (95% CI) univariate: 0.94 (0.62, 1.43)
MATE1_OCT019 Poor
  Disease Control Rate PD: 28 (74%)
  Disease Control Rate SD: 10 (26%)
  Progression-free Survival Median, months (95% CI): 2.0 (1.8, 2.1) months
MATE1 rs2289659 A/A
  Disease Control Rate PD: 20 (74%)
  Disease Control Rate SD: 7 (26%)
  Progression-free Survival Median, months (95% CI): 2.0 (1.7, 2.3) months
MATE1 rs2289659 A/A vs G/G
  Overall Survival HR (95% CI) multivariate: 1.42 (0.61, 3.32)
  Overall Survival HR (95% CI) univariate: 1.13 (0.50, 2.58)
  Progression-free Survival HR (95% CI) multivariate: 1.11 (0.63, 1.96)
  Progression-free Survival HR (95% CI) univariate: 1.01 (0.58, 1.74)
MATE1 rs2289659 Any A
  Disease Control Rate PD: 64 (70%)
  Disease Control Rate SD: 27 (30%)
  Overall Survival Median, months (95% CI): 5.3 (3.9, 8.8+) months
  Progression-free Survival Median, months (95% CI): 2.0 (1.9, 2.1) months
MATE1 rs2289659 Any A vs G/G
  Overall Survival HR (95% CI) multivariate: 1.60 (0.85, 3.04)
  Overall Survival HR (95% CI) univariate: 1.42 (0.76, 2.64)
  Progression-free Survival HR (95% CI) multivariate: 1.14 (0.74, 1.75)
  Progression-free Survival HR (95% CI) univariate: 1.03 (0.68, 1.58)
MATE1 rs2289659 G/A
  Disease Control Rate PD: 44 (69%)
  Disease Control Rate SD: 20 (31%)
  Overall Survival Median, months (95% CI): 4.6 (3.7, 8.8+) months
  Progression-free Survival Median, months (95% CI): 2.0 (1.8, 2.3) months
MATE1 rs2289659 G/A vs G/G
  Overall Survival HR (95% CI) multivariate: 1.67 (0.56, 3.25)
  Overall Survival HR (95% CI) univariate: 1.55 (0.81, 2.96)
  Progression-free Survival HR (95% CI) multivariate: 1.15 (0.73, 1.53)
  Progression-free Survival HR (95% CI) univariate: 1.04 (0.66, 1.64)
MATE1 rs2289659 G/G
  Disease Control Rate PD: 27 (73%)
  Disease Control Rate SD: 10 (27%)
  Overall Survival Median, months (95% CI): 9.0 (4.4, 9.0+) months
  Progression-free Survival Median, months (95% CI): 1.9 (1.9, 2.4) months
OCT2 rs316019 C/A
  Disease Control Rate PD: 21 (68%)
  Disease Control Rate SD: 10 (32%)
  Overall Survival Median, months (95% CI): 4.6 (3.6, 7.1+) months
  Progression-free Survival Median, months (95% CI): 1.9 (1.7, 2.4) months
OCT2 rs316019 C/A vs C/C
  Overall Survival HR (95% CI) multivariate: 1.00 (0.53, 1.89)
  Overall Survival HR (95% CI) univariate: 1.19 (0.64, 2.19)
  Progression-free Survival HR (95% CI) multivariate: 1.28 (0.79, 2.07)
  Progression-free Survival HR (95% CI) univariate: 1.12 (0.72, 1.76)
OCT2 rs316019 C/C
  Disease Control Rate PD: 70 (72%)
  Disease Control Rate SD: 27 (28%)
  Overall Survival Median, months (95% CI): 5.5 (4.7, 9.0+) months
  Progression-free Survival Median, months (95% CI): 2.0 (1.9, 2.3) months
Adjusted for age group, liver metastasis, ECOG performance status, previous anti-EGFR, OCT2 rs316000 A/G vs A/A
  Overall Survival HR (95% CI) multivariate: 0.66 (0.36, 1.23)
Adjusted for age group, liver metastasis, ECOG performance status, previous anti-EGFR, OCT2 rs316000 Any G vs A/A
  Overall Survival HR (95% CI) multivariate: 0.66 (0.36, 1.21)
Adjusted for age group, liver metastasis, ECOG performance status, previous anti-EGFR, OCT2 rs316000 G/G vs A/A
  Overall Survival HR (95% CI) multivariate: 0.64 (0.08, 4.91)
Genotype vs A/A, OCT2 rs316000 A/G vs A/A
  Overall Survival HR (95% CI) univariate: 0.87 (0.48, 1.57)
Genotype vs A/A, OCT2 rs316000 Any G vs A/A
  Overall Survival HR (95% CI) univariate: 0.83 (0.46, 1.47)
Genotype vs A/A, OCT2 rs316000 G/G vs A/A
  Overall Survival HR (95% CI) univariate: 0.45 (0.06, 3.28)
[9]
  OS: 4.0 months
  PFS: 1.9 months
[10]
  OS: 9.0 months
  PFS: 2.1 months
[11]
  OS: 3.6 months
  PFS: 2.0 months
hENT1 rs750370 A/A
  Disease Control Rate PD: 36 (80%)
